From paper PMC8006935, “Study of Combinatorial Drug Synergy of Novel Acridone Derivatives With Temozolomide Using in-silico and in-vitro Methods in the Treatment of Drug-Resistant Glioma” (Frontiers in Oncology, 2021)

Key:
[1] = test system: Drug resistant cancer cells (CR), T-98; assay: Mathematical tumor growth model simulation and Bliss synergy, drug resistant cancer cells
[2] = Acute Oral Toxicity - Fixed Dose procedure; type: in vivo; settings: for clinical sign of toxicity: oral, single dose, 14 days observation, female albino Wistar rats
Protocol: Animal study was conducted for acridone derivatives AC2, AC7, and AC26 alone and in combination with Temozolomide for Acute Oral Toxicity - Fixed Dose procedure. The Institutional Animal Ethics Committee bearing CPCSEA/IAEC/P-52/2016 was approved for undertaking the study. Acute oral toxicity was conducted on female albino Wistar rats for 8–12 weeks and were maintained at 25 ± 2 °C in a conditioned room with 50–60% of humidity and free access to food and water was given. Rats were kept for fasting overnight (12 h) before dosing and weights were recorded periodically. Rats in two groups were given acridone derivatives alone at a dose of […], rats in two groups were given a combination of Temozolomide : acridone derivatives at dose of 10:1 mg/kg and 15:1.5 mg/kg body weight and one group was kept as control. Dose of Temozolomide was taken as per previously published article ([50]). Compounds alone and combination were suspended in 2.0% of Tween 80 in normal saline and control group was taken for vehicle only. After administering the compound, food was not provided for 3 h. All the rats were monitored periodically for 1 h upto 12 h on the 1st day and thereafter twice in a day for mortality, behavioral changes, signs and symptoms of toxicity for 14 days. Individual weights of rats were taken for all the 14 days and study was conducted twice for each dose.

[3] = pKa by UV-Vis spectrophotometer; type: physicochemical
Protocol: Characterization of acridone derivatives AC2, AC7, and AC26 were carried out by using all the chemicals of analytical grade. Hydrochloric acid and sodium hydroxide were procured from Sisco Research Lab Pvt. Ltd (Mumbai, India). Potassium dihydrogen orthophosphate, methanol and ortho-phosphoric acid (85% pure) was received from Loba Chemie Pvt. Ltd. (Mumbai, India). Sodium chloride was received from SD Fine-Chem Limited (Mumbai, India). Milli-pore water was used throughout the study. Chemical information like the molecular weight of compounds was determined by obtaining ESI-MS spectroscopy using methanol as solvent. pH calculated by using pH analyzer (Lab India) and PKa determined by using UV-Vis spectrophotometer (Shimadzu, Japan). Melting point was calculated by Digital Melting point apparatus (Veego India). Lipophilicity was determined by using software like Chem Draw 15 and ALGOPS 2.1 ([16]). In order to determine the Blood Brain Barrier (BBB) permeability of the compounds, we have used Online BBB Predictor (https://www.cbligand.org/BBB/predictor.php) using SVM Machine Learning algorithm and PubChem as the fingerprint ([17]).

[4] = parameters: method as in PMID 21565270; settings: cited from earlier work
[5] = Sulforhodamine B assay, Vero control cells; type: cell-based; settings: African green monkey, Vero cells (normal kidney epithelial cells), SRB, read-out: Vero cell Line CC50
Protocol: In order to test the growth inhibition potential of the TMZ and Acridone derivatives on Glioma, the U-87 (Uppsala 87) Glioma cell lines and T-98 (Temozolomide resistant) Glioma cell lines were treated with Temozolomide (TMZ) and Acridone derivatives AC2, AC7, and AC26. The African Green Monkey Kidney Vero cell lines were used as control for the study. The Vero cell lines were obtained from the National Center for Cell Sciences (NCCS), Pune, while the U-87 and T-98 cell lines were carried in the lab of Dr. GJ Peters, Cancer Center Amsterdam (CCA), VU University Medical Center, Amsterdam, Netherlands. The Mycoplasma testing was done by using the Universal Mycoplasma Detection Kit (ATCC® 30-1012K™) every 6 months. The Vero cell lines have been used as control as they are normal kidney epithelial cells and are non-cancerous in nature. The Vero cell lines have been routinely used for testing cytotoxicity of small molecules by various researchers ([22], [23]). Also, in our previous study, Vero cell lines have been used for testing safety and efficacy of Acridone derivatives for Lung, Cervical, and Breast Cancer studies ([13]).
Cell viability was found using the Sulforhodamine B (SRB) assay to measure the cellular protein content which provides better sensitivity in comparison to MTT assay ([24]). Moreover, as this method is dependent on the property of the SRB dye, it acts by binding to proteins under slightly acidic conditions and can be exposed to basic conditions for its extraction. The resulting amount of bound dye is then utilized as a proxy for cell mass ([25]). This cell mass can then be extrapolated to measure cell growth.
Glioma cells were cultured in Gibco (RPMI 1640) complemented with 10% fetal calf serum (Gibco). The cultures were then treated with trypsin-EDTA in order to detach/separate the cells from their culture flasks. The quickly proliferating cells were harvested, counted and plated at suitable concentrations in 96-well microplates. These microplates were subsequently incubated for 24 h. After incubation, drug compounds were dissolved in the culture media and placed in 96 well plates in triplicates, which were again incubated at 37°C under 5% CO2 for 72 h. 72 h later, the plates were removed and the cells were treated with cold Trichloroacetic acid (TCA) to fix the cultures and. […] Thereafter, absorbance of the solution was measured at 540 nm utilizing a microplate reader. Absorbance readings (triplicate values) recorded were used to calculate percentage growth inhibition due to the effect of drugs using the following equations.
% Cell growth = Absorbance sample/Absorbance of control or untreated × 100 […]
The IC50 was calculated based on the log graph sheet which was developed in-house at the CCA, VU University Medical Center. […]

Structure (SMILES)	Body weight (g) Day 0 ([2]; 300 mg/kg oral)	Body weight (g) Day 1 ([2]; 300 mg/kg oral)	Body weight (g) Day 2 ([2]; 300 mg/kg oral)	Body weight (g) Day 3 ([2]; 300 mg/kg oral)	Body weight (g) Day 4 ([2]; 300 mg/kg oral)	Body weight (g) Day 5 ([2]; 300 mg/kg oral)	Body weight (g) Day 6 ([2]; 300 mg/kg oral)	Body weight (g) Day 7 ([2]; 300 mg/kg oral)	Body weight (g) Day 8 ([2]; 300 mg/kg oral)	Body weight (g) Day 9 ([2]; 300 mg/kg oral)	Body weight (g) Day 10 ([2]; 300 mg/kg oral)	Body weight (g) Day 11 ([2]; 300 mg/kg oral)	Body weight (g) Day 12 ([2]; 300 mg/kg oral)	Body weight (g) Day 13 ([2]; 300 mg/kg oral)	Body weight (g) Day 14 ([2]; 300 mg/kg oral)	Body weight (g) Day 0 ([2]; 2000 mg/kg oral)	Body weight (g) Day 1 ([2]; 2000 mg/kg oral)	Body weight (g) Day 2 ([2]; 2000 mg/kg oral)	Body weight (g) Day 3 ([2]; 2000 mg/kg oral)	Body weight (g) Day 4 ([2]; 2000 mg/kg oral)	further results
CC(=NNC(=O)c1cccc2c(=O)c3ccccc3[nH]c12)c1ccccc1O [AC26, N'(1-(2-hydroxyphenyl)ethylidene)-9-oxo-9,10-dihydroacridine-4-carbohydrazide]	178 ± 10 g	182 ± 8 g	183 ± 12 g	184 ± 16 g	187 ± 10 g	189 ± 16 g	191 ± 12 g	194 ± 18 g	196 ± 12 g	199 ± 10 g	201 ± 14 g	202 ± 16 g	205 ± 12 g	207 ± 8 g	209 ± 18 g	181 ± 11 g	182 ± 15 g	185 ± 10 g	188 ± 11 g	189 ± 18 g	Fold change = final IC50/initial IC50 ([1]; combination TMZ + AC26): 0.88; Body weight (g) Day 5 ([2]; 2000 mg/kg oral): 193 ± 22 g; Body weight (g) Day 6 ([2]; 2000 mg/kg oral): 195 ± 16 g; Body weight (g) Day 7 ([2]; 2000 mg/kg oral): 199 ± 19 g; Body weight (g) Day 8 ([2]; 2000 mg/kg oral): 200 ± 14 g; Body weight (g) Day 9 ([2]; 2000 mg/kg oral): 202 ± 10 g; Body weight (g) Day 10 ([2]; 2000 mg/kg oral): 206 ± 8 g; Body weight (g) Day 11 ([2]; 2000 mg/kg oral): 207 ± 9 g; Body weight (g) Day 12 ([2]; 2000 mg/kg oral): 209 ± 4 g; Body weight (g) Day 13 ([2]; 2000 mg/kg oral): 211 ± 12 g; Body weight (g) Day 14 ([2]; 2000 mg/kg oral): 215 ± 20 g; clinical sign of toxicity [2]: No clinical sign of toxicity was observed; pKa [3]: 6.52; cytotoxicity in comparison to the other acridone derivatives [4]: 100 times; CC50 at 72 h [5]: 66.1 µM
O=C(NN=CC=Cc1ccccc1)c1cccc2c(=O)c3ccccc3[nH]c12 [AC2, 9-oxo-N'-(3-phenylallylidene)-9,10-dihydroacridine-4-carbohydrazide]	185 ± 6 g	186 ± 12 g	189 ± 10 g	191 ± 15 g	192 ± 12 g	193 ± 22 g	195 ± 12 g	196 ± 10 g	194 ± 12 g	195 ± 10 g	198 ± 15 g	199 ± 16 g	201 ± 10 g	203 ± 6 g	205 ± 18 g	173 ± 8 g	175 ± 11 g	176 ± 8 g	178 ± 12 g	180 ± 14 g	% fold change [(final-initial)/initial]*100 ([1]; combination TMZ + AC2): 3.26%; Fold change = final IC50/initial IC50 ([1]; combination TMZ + AC2): 0.96; Body weight (g) Day 5 ([2]; 2000 mg/kg oral): 183 ± 15 g; Body weight (g) Day 6 ([2]; 2000 mg/kg oral): 185 ± 12 g; Body weight (g) Day 7 ([2]; 2000 mg/kg oral): 188 ± 16 g; Body weight (g) Day 8 ([2]; 2000 mg/kg oral): 190 ± 12 g; Body weight (g) Day 9 ([2]; 2000 mg/kg oral): 192 ± 16 g; Body weight (g) Day 10 ([2]; 2000 mg/kg oral): 195 ± 12 g; Body weight (g) Day 11 ([2]; 2000 mg/kg oral): 197 ± 8 g; Body weight (g) Day 12 ([2]; 2000 mg/kg oral): 199 ± 12 g; Body weight (g) Day 13 ([2]; 2000 mg/kg oral): 202 ± 15 g; Body weight (g) Day 14 ([2]; 2000 mg/kg oral): 206 ± 7 g; clinical sign of toxicity [2]: No clinical sign of toxicity was observed; pKa [3]: 8.03; cytotoxicity in comparison to the other acridone derivatives [4]: 100 times; CC50 at 72 h [5]: 56.2 µM
O=C(NN=Cc1ccccc1Cl)c1cccc2c(=O)c3ccccc3[nH]c12 [AC7, N'-(2-chlorobenzylidene)-9-oxo-9,10-dihydroacridine-4-carbohydrazide]	175 ± 10 g	176 ± 14 g	178 ± 10 g	181 ± 8 g	183 ± 12 g	185 ± 15 g	188 ± 11 g	192 ± 12 g	194 ± 12 g	196 ± 14 g	195 ± 11 g	197 ± 16 g	199 ± 12 g	202 ± 10 g	205 ± 18 g	180 ± 8 g	181 ± 12 g	183 ± 8 g	185 ± 14 g	187 ± 6 g	% fold change [(final-initial)/initial]*100 ([1]; combination TMZ + AC7): 8.5%; Fold change = final IC50/initial IC50 ([1]; combination TMZ + AC7): 0.91; Body weight (g) Day 5 ([2]; 2000 mg/kg oral): 189 ± 11 g; Body weight (g) Day 6 ([2]; 2000 mg/kg oral): 192 ± 16 g; Body weight (g) Day 7 ([2]; 2000 mg/kg oral): 193 ± 15 g; Body weight (g) Day 8 ([2]; 2000 mg/kg oral): 197 ± 10 g; Body weight (g) Day 9 ([2]; 2000 mg/kg oral): 198 ± 18 g; Body weight (g) Day 10 ([2]; 2000 mg/kg oral): 201 ± 8 g; Body weight (g) Day 11 ([2]; 2000 mg/kg oral): 204 ± 10 g; Body weight (g) Day 12 ([2]; 2000 mg/kg oral): 206 ± 14 g; Body weight (g) Day 13 ([2]; 2000 mg/kg oral): 208 ± 12 g; Body weight (g) Day 14 ([2]; 2000 mg/kg oral): 211 ± 16 g; clinical sign of toxicity [2]: No clinical sign of toxicity was observed; pKa [3]: 9.23; cytotoxicity in comparison to the other acridone derivatives [4]: 100 times; CC50 at 72 h [5]: 48.2 µM
